The source of these data is US11123349B2, “Method of treatment” (The University of Melbourne, priority 2017, dated 2021).

Data set [1] deals with IL-1 production from whole blood stimulated with LPS. Kind of data set: Whole blood assay: LPS-induced IL-1β production (ELISA). The class given is cell-based, horse. The method, then:
(§1) A whole blood assay was used to assess the effects of rolipram and doramapimod on cytokine production from leukocytes (white blood cells) in response to bacterial lipopolysaccharide (endotoxin).
(§2) Blood samples (10 mL; sodium citrate anticoagulant) were obtained from the six normal horses, diluted 1:1 with RPMI 1640 cell culture medium and aliquoted into 15×1 mL aliquots. Serial dilutions of rolipram and doramapimod were made from 10^−2M stock solutions in phosphate-buffered saline and DMSO, respectively, and 10 μL added to […] give final concentrations ranging from 10^−10-10^−4 Molar. The samples were then incubated with 100 ng/mL purified bacterial lipopolysaccharide (endotoxin derived from E. Coli O55:B5; purified to remove DNA and protein contaminants). After incubation for 18 hours at 37° C. in a shaking incubator, samples were centrifuged at 300 g and supernatants stored at −80° C. for cytokine analysis.
Plasma IL-1β concentrations were measured using an equine-specific enzyme linked immunosorbent assay (ELISA; Horse IL-1β ELISA kit, Bethyl Laboratories, Montgomery, Tex., USA). […] The optical density (OD) values of samples were determined at 450 nm using an ELISA plate reader (BioTek Synergy H1) and concentrations determined using GENS Software (version 2.00.17).
(§3) The data are expressed as % inhibition of LPS-induced cytokine production at each of the drug concentrations. […]
(In general: In an ELISA, binding on a coated surface is turned into a signal by an enzyme label.)

Data set [2] is described as follows: Solubility / formulation for intravenous administration. The class given is physicochemical.
Procedure: Solubility of the drugs was tested to determine their suitability for intravenous administration (this is the route of choice for the treatment of endotoxemia).
Data set [3] relates to TNF production from whole blood stimulated with LPS. Description: Whole blood assay: LPS-induced TNF-α production (L929 fibrosarcoma cell bioassay). The class given is cell-based, horse. Here is the method:
as §1, §2
The proinflammatory cytokine, TNF-α, was measured using a L929 fibrosarcoma cell bioassay. […] The yellow tetrazole dye, 3-(4,5-dimethylthiazol-2-yl)-2,5-diphenyltetrazolium bromide (MTT), is reduced to a purple formazan compound in living cells, which is then quantified using a colorimetric plate reader (absorbance read at 570 nm with reference wavelength of 650 nm). […]
as §3

[4] abbreviates: equine whole blood, LPS, 18 hours.

≈ marks a conversion by molar mass, not a printed value. Where two headings read alike, the source gives them in different places.

In general, IC50 refers to the concentration needed to halve the response being measured. As for `COc1ccc(C2CNC(=O)C2)cc1OC1CCCC1` (stereo not drawn) [rolipram], the IC50 turned out to be 1020 nM in data set [1] (Equus caballus, equine whole blood diluted 1:1 with RPMI 1640, LPS, 18 hours at 37° C., read-out: IC50, inhibition of IL-1 production) and 653 nM in data set [3] (Equus caballus, L929, equine whole blood diluted 1:1 with RPMI 1640, LPS, 18 hours at 37° C., read-out: IC50, inhibition of TNFa production). For the same molecule, the “maximum inhibition of IL-1 production” value in data set [1] (setting [4]) came out at 39.5±7.1%. Further, the solubility in data set [2] (10% DMSO, aqueous with cosolvent or surfactant or cyclodextrin, read-out: soluble in 10% DMSO to) amounted to 1000 µg/mL (≈ 3630 µM); in data set [2] (water, read-out: water soluble to), 200 µg/mL (≈ 726 µM). In addition, the “inhibition of TNFa production at high concentrations” value in data set [3] (setting [4]) was roughly 100%.
